In ChEMBL document CHEMBL1141519, “Pyrogallol and its analogs can antagonize bacterial quorum sensing in Vibrio harveyi” (Bioorg Med Chem Lett, 2008):
Active and inactive are the calls of the source. No cut-off for these calls is given here.

Tests used:
[1] = biological target: Autoinducer 2-binding periplasmic protein LuxP (Vibrio harveyi, UniProt P54300); assay: Antagonist activity at LuxP receptor in Vibrio harveyi MM32 assessed as inhibition of autoinducer-2-mediated quorum sensing after 3 to 4 hrs; type: functional
Vibrio harveyi [2] = assay: Growth inhibition of Vibrio harveyi assessed as time required to double bacterial growth at 20 uM; type: functional
Vibrio harveyi [3] = assay: Growth inhibition of Vibrio harveyi assessed as time required to double bacterial growth relative to control; type: functional, organism-based

Sequence of Autoinducer 2-binding periplasmic protein LuxP (P54300 whole entry): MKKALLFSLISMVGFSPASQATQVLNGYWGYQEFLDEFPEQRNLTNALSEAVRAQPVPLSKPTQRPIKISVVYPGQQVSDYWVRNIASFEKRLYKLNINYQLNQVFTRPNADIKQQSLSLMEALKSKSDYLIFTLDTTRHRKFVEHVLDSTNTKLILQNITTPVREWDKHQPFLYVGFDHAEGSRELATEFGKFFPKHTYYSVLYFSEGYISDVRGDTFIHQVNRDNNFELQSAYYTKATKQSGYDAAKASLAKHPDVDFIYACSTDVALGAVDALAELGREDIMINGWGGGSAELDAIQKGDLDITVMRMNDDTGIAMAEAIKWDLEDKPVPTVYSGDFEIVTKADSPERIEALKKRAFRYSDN

For `NCCc1cc(O)c(O)c(O)c1`, the IC50 [1] was 22 µM.

For `Oc1cccc(O)c1O` [PYROGALLOL], the Time (Vibrio harveyi [2]) was 82 min and the IC50 [1] was 2 µM.

In the case of `O=C(O)c1ccc(O)c(O)c1O`, the Activity (Vibrio harveyi [3]) is reported as “inactive” and the IC50 [1] is reported as 61 µM.

For `O[C@@H]1CCC[C@@H]1O`, the Activity (Vibrio harveyi [3]) was “inactive”.

In the case of `Oc1cccnc1O`, the Activity (Vibrio harveyi [3]) is reported as “inactive”.

With `CC(=O)c1ccc(O)c(O)c1O` [GALLACETOPHENONE] the Activity (Vibrio harveyi [3]) was “inactive” and the IC50 [1] was 21 µM.

In the case of `N#CC(C#N)=Cc1cc(O)c(O)c(O)c1`, the Activity (Vibrio harveyi [3]) is reported as “inactive”.

For `O=C(c1ccccc1)c1ccc(O)c(O)c1O`, the Activity (Vibrio harveyi [3]) was “inactive” and the IC50 [1] was 4 µM.

`Oc1ccccc1O` [CATECHOL] was tested, and the Activity (Vibrio harveyi [3]) was “inactive” and the IC50 [1] was 59 µM.

With `O=C(O)c1cc(O)c(O)c(O)c1` [GALLIC ACID] the Activity (Vibrio harveyi [3]) was “inactive” and the IC50 [1] was 50 µM.

In the case of `O=c1ccc2ccc(O)c(O)c2o1` [DAPHNETIN], the Activity (Vibrio harveyi [3]) is reported as “inactive” and the IC50 [1] is reported as 12 µM.

For `O=Cc1cc(O)c(O)c(O)c1`, the Activity (Vibrio harveyi [3]) was “inactive” and the IC50 [1] was 12 µM.

For `CCOC(=O)c1oc(C(=O)OCC)c(O)c1O`, the Activity (Vibrio harveyi [3]) was “inactive”.

In the case of `O=Cc1ccc(O)c(O)c1O`, the Activity (Vibrio harveyi [3]) is reported as “inactive” and the IC50 [1] is reported as 4 µM.
